Reference: patent US20160144055A1, “GENE THERAPY VECTOR FOR TREATMENT OF STEROID GLAUCOMA” (priority 2009, published 2016)
Several values for one entry are separate records, joined by “and”; a condition that tells them apart may be missing. Equal entries are not always repeated. Where two headings read alike, the source gives them in different places.

Key:
[1] = system: MMP1 expression in primary HTM cells; experiment: Endogenous MMP1 expression in glucocorticoid-treated primary HTM cells (real-time TaqMan PCR); assay type: cell-based, human
Experimental: To generate primary HTM cells, the trabecular meshwork tissue was dissected from residual cornea rims after surgical corneal transplantation at the University of North Carolina Eye Clinic, Chapel Hill, N.C., United States of America. Trabecular meshworks were isolated from surrounding tissue, cut into small pieces and treated with 1 mg/ml collagenase type IV (Worthington, Lakewood, N.J., United States of America), as previously described (Vittitow et al., Mol Via 2002; 8:32-44). Cells were maintained at 37° C., 7% CO2 in MEM Richter's modification medium (HyClone, Thermo Fisher Scientific, Waltham, Mass., United States of America) supplemented with 20% FBS and 50 ug/ml gentamicin (Gibco Invitrogen, Carlsbad, Calif., United States of America). At confluency, cells were passed and maintained in the same medium but with 10% FBS (complete medium). All cells were used at passages 4 to 6. These outflow pathway cultures include cells from the three distinct regions of the trabecular meshwork plus cells lining the Schlemm's canal (SC). Because most of the cells in these cultures come from the trabecular meshwork they are commonly referred to as trabecular meshwork cells. The cells used in this study were from a person (HTM-109), a person (HTM-95), a person (HTM-106) and a person (HTM-140).
Drug treatments on the HTM cells were conducted in complete media. HTM cells were grown to pre-confluency and exposed to drugs as follows. Treatment with dexamethasone (DEX; Sigma, St. Louis, Mo., United States of America) was conducted at a final concentration of 0.1 uM. DEX was reconstituted in absolute ethanol at 0.1 mM and diluted 1,000-fold into complete media every 48 to 72 hours for the duration of the experiment. Treatment with triamcinolone acetonide (Kenacort-A; Bristol-Myers Squibb, New York, N.Y., United States of America) was performed at a final concentration of 0.1 mg/ml. Kenacort-A 40 mg/ml suspension was well mixed and diluted into complete medium 400-fold at the time of use. The concentration of 0.1 mg/ml triamcinolone acetonide was chosen because intravitreal injections of 1 mg/ml are widely used in the clinical setting, which would result in a lower concentration of the steroid in the aqueous humor. In addition, the concentration of 0.1 mg/ml has been successfully studied in trabecular meshwork cells (Fan B J et al., Invest Ophthalmol Vis Sci. 2008; 49:1886-1897). Treatment with prednisolone was conducted at a final concentration of 200 uM (80 μg/ml). Prednisolone 21-acetate (Sigma) was reconstituted in ethanol at 200 mM (80 mg/ml) as a suspension and mixed well prior dilution of 1,000-fold into the culture medium. The drugs were exposed to the cells for the period of time described in results. Untreated control dishes received the same volume of absolute ethanol (drug vehicle) under identical conditions.
HTM cells were scraped from tissue culture dishes with guanidine thiocyanate buffer (RLT, Qiagen, Valencia, Calif., United States of America). Total RNA was extracted by loading the solution onto a QIA Shredder™ column (Qiagen) and continued by the use of the RNeasy Mini kit with on-column RNase-free DNAse digestion according to manufacturer's recommendations (Qiagen). Purified RNA was eluted in 30 ul RNase-free water and concentration measured with a NanoDrop ND-100 spectrophotometer (Thermo Fisher Scientific). For the tissue, human trabecular meshworks were excised from one week RNAlater (Ambion Applied Biosystems, Austin, Tex., United States of America) immersed anterior segments. One half of the isolated trabecular meshwork tissue was homogenized on 350 μl of RLT and RNA extraction continued as described for the cells. Recoveries were between 1.4 to 2 ug of RNA per human trabecular meshwork. […]

[2] = system: sheep eyes; conditions: cited from earlier work
[3] = system: sheep eyes with triamcinolone-induced ocular hypertension; conditions: for IOP on Day 4 after bilateral sub-Tenon injection: n=4, before virus
Experimental: All animal experiments were performed in accordance with the Association for Research in Vision and Ophthalmology (ARVO) guidelines. A total of 18 healthy (female) sheep (Corriedale breed) between 12 and 24 months of age, and weighing 35 to 40 kg, were selected from a local ranch in Corrientes, Argentina for this study. The eyes and general health of the animals were considered normal by an ophthalmologist and a veterinarian, respectively. Sheep were tagged for individual identification on their ear lobes and herded from pasture whenever it was necessary to 1) topically instill prednisolone, 2) inject a sub-Tenon depot of triamcinolone acetonide, 3) inject adenoviral vectors carrying the MMP1 transgene intracamerally via the cornea, or 4) measure IOP by applanation tonometry. To apply prednisolone, the sheep were guided into a funnel corral ending in a loose-fitting yoke. This arrangement allowed movement and holding of the head by one person while another instilled the drops. To measure IOP with a Perkins tonometer, the sheep were also guided into the funnel corral and then into the neck yoke. For the sub-Tenon injection of triamcinolone, and the trans-corneal injections of adenoviral vectors, sheep were anesthetized topically. Between all procedures, the sheep were free to pasture.
In those sheep in which triamcinolone was used to induce ocular hypertension, the following general protocol was applied. Two drops of proparacaine (0.5%) were topically instilled to the ocular surface. Then, a single 1-ml injection of sterile triamcinolone acetonide (40 mg/ml, or 4%; Bristol-Myers Squibb Co., Princeton, N.J., United States of America) was administered via sub-Tenon injection using a 30G needle inserted 5 mm from the limbus.
For the injections, the distance from the limbus was determined from the width of a 5 mm×30 mm Schirmer strip that was held between the limbus and the injection site. The conjunctiva at the injection site was grasped with fine forceps and an initial oblique conjunctival puncture was made with the needle bevel facing upwards. […] The needle was pushed through Tenon's capsule until the tip reached the sclera (as determined by feel). Care was taken to avoid puncturing the sclera itself. Also, since Tenon's capsule consists of several layers, care was also taken to administer a sub-Tenon (to create a juxta-scleral depot), and not an intra-Tenon's injection. Immediately following the injection the needle was rapidly withdrawn. The volume injected (1 ml) yielded a characteristic 180°-240° quasi-donut-shaped bolus of fluid around the limbus. Each injected eye then received drops of TOBREX® (tobramycin ophthalmic solution, 0.3%, Alcon Laboratories, Inc., Fort Worth, Tex., United States of America).
Animals were led to a funnel corral and their heads were suitably oriented within a neck yoke to enable an ophthalmologist to measure IOP with the Perkins tonometer. Before the IOP measurement, 2 drops of topical 0.5% proparacaine (Alcon Argentina) followed by 2 drops of 0.25% fluorescein were instilled. Two sets of measurements were taken on each eye alternating first one eye and then the other. All IOP measurements were taken between 2 PM and 4 PM every 2 or 3 days. The Perkins tonometry readings were converted to mmHg as described in detail previously (Kass et al., Arch Ophthalmol. 2002; 120:701-713).
Details of the design, construction, characterization and titration of the steroid-inducible MMP1 adenoviruses are provided in Example 2, above. At the time of viral administration, an Eppendorf™ tube containing the frozen virus suspension was thawed in the field as the sheep were immobilized within a narrow passage ending in a yoke. Two drops of topical proparacaine 0.5% (Alcon, Argentina) were instilled on the eyes as an anesthetic. Following this 30 μl of the virus suspension was injected into the eye using a Hamilton syringe with a 28G needle.

[4] = system: sheep eyes treated with triamcinolone or prednisolone; experiment: IOP in sheep given triamcinolone in one eye and prednisolone in the other, with Ad vector; assay type: in vivo, sheep (Ovis aries)
Excerpt: After determining the baseline measurement of IOP over the course of several days, two drops of 0.5% prednisolone acetate (Ultracortenol; Novartis Ophthalmics, Hettlingen, Switzerland) was topically instilled 3-times daily at 7 AM, 2 PM, and 7 PM for durations that lasted for 10-15 days depending on the experiment. In some experiments, prednisolone was instilled bilaterally; in others only one eye received the corticosteroid.
The injection procedure took less than 30 seconds.
Additional experiments (employing 2 separate protocols, each on one sheep) tested the effects of the injection of Ad virus carrying active MMP1 transgene on the IOP of contralateral eyes treated with unilateral triamcinolone and unilateral prednisolone. In the first protocol of this set, one eye of a sheep was administered triamcinolone via a sub-Tenon injection two weeks before the start of IOP measurements. The point at which IOP measurements were initiated was designated “Day 0” of the experiment. […] After recording these measurements, thrice daily instillations of prednisolone were begun on eye OS. Three-days later, when the IOP's of both eyes were nearly identical, Ad virus carrying active MMP1 transgene was bilaterally injected into the anterior chambers of the eyes. […] At the point of virus injection, IOP of eye OD had been elevated for 17 days; after virus injection, IOP was reduced up to Day 24. […]

Compound	MMP1 cDNA levels (RQ) ([1]; 80 μg/ml, 24 hours, HTM-109 cells)	downregulation of MMP1 at the transcriptional level ([1]; shorter time periods) [fold]	IOP increase ([2]; 0.5% topically three times daily, within 2 weeks)	incidence of intraocular pressure elevation in treated eyes ([2]; 0.5% topically three times daily) [%]	time for IOP to decline to baseline after discontinuation ([2]; in vivo)	MMP1 expression, RQ values (18S normalized MMP1 cDNA) ([1]; 0.1 μM DEX, 3 days, HTM-109 cells)	MMP1 expression, RQ values (18S normalized MMP1 cDNA) ([1]; 0.1 μM DEX, 6 days, HTM-109 cells)	MMP1 expression, RQ values (18S normalized MMP1 cDNA) ([1]; DEX removed from medium at 3 days, measured at day 6)	downregulation of MMP1 at the transcriptional level ([1]; DEX-treated cells for 6 days) [fold]	MMP1 cDNA levels (RQ) ([1]; 0.1 mg/ml, 12 hours, HTM-109 cells)	IOP 15 days after sub-Tenon drug injection ([3]; FIG. 9)	IOP of the fellow eyes on Day 18 ([3]; depot nearly consumed, eyes had also received Ad vectors on Day 4, n=4 each)	IOP on Day 4 after bilateral sub-Tenon injection ([3]; eyes then injected with active MMP1 vector) [mmHg]	IOP on Day 4 after bilateral sub-Tenon injection ([3]; eyes then injected with mutated MMP1 vector) [mmHg]	IOP on Day 4 after unilateral sub-Tenon injection ([3]; n=3, before null Ad injection) [mmHg]	time the depot subsisted in the eye as judged by IOP ([3]; sub-Tenon depot) [days]	time the depots subsisted as determined by the IOP ([3]; sub-Tenon depot)	IOP of the triamcinolone-treated eye on Day 15 ([4]; FIGS. 11 and 12)	IOP of the eye given triamcinolone relative to fellow eye on Day 0 ([4]; sub-Tenon injection two weeks before)
CC(=O)OCC(=O)[C@@]1(O)CC[C@H]2[C@@H]3CCC4=CC(=O)C=C[C@]4(C)[C@H]3[C@@H](O)C[C@@]21C [prednisolone, Prednisolone 21-acetate]	0.16±0.02	6.2	approximately 2.5 fold	100	1-3 weeks	–	–	–	–	–	–	–	–	–	–	–	–	–	–
C[C@@H]1C[C@H]2[C@@H]3CCC4=CC(=O)C=C[C@]4(C)[C@@]3(F)[C@@H](O)C[C@]2(C)[C@@]1(O)C(=O)CO [DEX, dexamethasone]	–	–	–	–	–	0.03±0.0002	0.002±0.0002	0.03±0.002	500	–	–	–	–	–	–	–	–	–	–
CC1(C)O[C@@H]2C[C@H]3[C@@H]4CCC5=CC(=O)C=C[C@]5(C)[C@@]4(F)[C@@H](O)C[C@]3(C)[C@]2(C(=O)CO)O1 [triamcinolone acetonide]	–	2.4	–	–	–	–	–	–	–	0.42±0.1	less than 20 mmHg	10.5±0.4 mmHg and 12.4±0.2 mmHg	22.1±0.2	22.6±0.8	25.2±0.4	14 to 20	2-3 weeks	above 25 mmHg	about twice that of eye OS
